Measurements reported in patent US4317824A, “Derivatives of quinoxaline-1,4-dioxides” (Abic, Ltd., priority 1976, dated 1982).
Values after ≈ are worked out from the molar mass of the structure shown.

What was measured:
Mycoplasma gallisept = experiment: antimicrobial activity, minimal inhibitory concentration, Mycoplasma gallisept; format: cell-based
Description: (§1) The antimicrobial activity of some compounds according to the present invention was measured and the results are shown in the following Tables. The activity is indicated as the minimal inhibitory concentration in μg/ml.

E. Coli [1] = experiment: antimicrobial activity, minimal inhibitory concentration, E. Coli; format: cell-based; details: Escherichia coli
Description: as §1

E. Coli [2] = experiment: Systemic E. Coli infection in mice; format: in vivo; details: systemic E. Coli infection, 2,5 mg × 2 per day
Description: (§2) Some compounds of general formula Id were tested also in vivo.

Salm. Typh. = experiment: antimicrobial activity, minimal inhibitory concentration, Salm. Typh.; format: cell-based; details: read-out: minimal inhibitory concentration
Description: as §1

St. aur = experiment: Systemic St. aur infection in mice; format: in vivo; details: systemic St. aur infection, 2,5 mg × 2 per day
Description: as §2

Staph. Aur. = experiment: antimicrobial activity, minimal inhibitory concentration, Staph. Aur.; format: cell-based
Description: as §1

B. Cereus = experiment: antimicrobial activity, minimal inhibitory concentration, B. Cereus; format: cell-based; details: Bacillus cereus
Description: as §1

Proteus = experiment: antimicrobial activity, minimal inhibitory concentration, Proteus; format: cell-based
Description: as §1

Trichophyt. Rubrum = experiment: antimicrobial activity, minimal inhibitory concentration, Trichophyt. Rubrum; format: cell-based
Description: as §1

B. Subtilis = experiment: antimicrobial activity, minimal inhibitory concentration, B. Subtilis; format: cell-based; details: Bacillus subtilis
Description: as §1

Shig. Flex. = experiment: antimicrobial activity, minimal inhibitory concentration, Shig. Flex.; format: cell-based
Description: as §1

E. Coli [3] = experiment: E. Coli infections chick; format: in vivo; details: 50 mg/kg
Description: as §2

Cand. Alb. = experiment: antimicrobial activity, minimal inhibitory concentration, Cand. Alb.; format: cell-based
Description: as §1

Crypt. Neof. = experiment: antimicrobial activity, minimal inhibitory concentration, Crypt. Neof.; format: cell-based
Description: as §1

Pseud. Aur. = experiment: antimicrobial activity, minimal inhibitory concentration, Pseud. Aur.; format: cell-based
Description: as §1

E. Coli [4] = experiment: U. Tract infections in mice (E. Coli); format: in vivo; details: U. Tract infections (E. Coli), 2,5 mg × 10 days
Description: as §2

Row | SMILES | MIC (Mycoplasma gallisept) [µg/mL] | MIC (E. Coli [1]) [µg/mL] | Protection (E. Coli [2]) | MIC (Salm. Typh.) [µg/mL] | Protection (St. aur) | MIC (Staph. Aur.) [µg/mL] | MIC (B. Cereus) [µg/mL] | MIC (Proteus) [µg/mL] | MIC (Trichophyt. Rubrum) [µg/mL] | MIC (B. Subtilis) [µg/mL] | MIC (Shig. Flex.) [µg/mL] | Protection (E. Coli [3]) | MIC (Cand. Alb.) [µg/mL] | MIC (Crypt. Neof.) [µg/mL] | MIC (Pseud. Aur.) [µg/mL] | Protection (E. Coli [4])
1 | CCNC(=NO)c1c[n+]([O-])c2ccccc2[n+]1[O-] [Example 18, 2-(N-ethylamino)-carboxamidoxime-quinoxaline-1,4-dioxide] | 10 to 25 (≈ 40.3 to 101 µM) | 25 (≈ 101 µM) | + (indicates protection >80%) | 25 (≈ 101 µM) | +/- (indicates protection 50-80%) | 10 (≈ 40.3 µM) | 25 (≈ 101 µM) | 11 to 100 (≈ 44.3 to 403 µM) | – | – | – | – | – | – | – | –
2 | O=C(CCl)ON=C(Cl)c1c[n+]([O-])c2ccccc2[n+]1[O-] [Example 13, 2-[α-chloro-(0-chloroacetylcarboxaldoxime)]-quinoxaline-1,4-dioxide] | 25 (≈ 79.1 µM) | 25 (≈ 79.1 µM) | – | 50 (≈ 158 µM) | – | 20 (≈ 63.3 µM) | 25 (≈ 79.1 µM) | – | 11 to 100 (≈ 34.8 to 316 µM) | 11 to 100 (≈ 34.8 to 316 µM) | 11 to 100 (≈ 34.8 to 316 µM) | – | – | – | – | –
3 | [O-][n+]1cc(C(Cl)=NO)[n+]([O-])c2ccccc21 [Example 6, 2(α-chloro)-carboxaldoxime-quinoxaline-1,4-dioxide] | 25 to 50 (≈ 104 to 209 µM) | 25 (≈ 104 µM) | – | – | – | 25 (≈ 104 µM) | 25 (≈ 104 µM) | – | 11 to 100 (≈ 45.9 to 417 µM) | 11 to 100 (≈ 45.9 to 417 µM) | 11 to 100 (≈ 45.9 to 417 µM) | – | – | – | – | –
4 | [O-][n+]1cc(C(=NO)NN2CCOCC2)[n+]([O-])c2ccccc21 [drawing 8] | – | – | + (indicates protection >80%) | – | + (indicates protection >80%) | – | – | – | – | – | – | - (indicates protection <50%) | – | – | – | –
5 | CC(=O)NNC(=NO)c1c[n+]([O-])c2ccccc2[n+]1[O-] [Example 24, 2-N-(acetyl-hydrazino)-carboxaldoxime-quinoxaline-1,4-dioxide] | – | 11 to 100 (≈ 39.7 to 361 µM) | + (indicates protection >80%) | 11 to 100 (≈ 39.7 to 361 µM) | + (indicates protection >80%) | 10 (≈ 36.1 µM) | 11 to 100 (≈ 39.7 to 361 µM) | 11 to 100 (≈ 39.7 to 361 µM) | 11 to 100 (≈ 39.7 to 361 µM) | – | – | – | – | – | – | –
6 | CNC(=NO)c1c[n+]([O-])c2ccccc2[n+]1[O-] [Example 18 (methylamino), 2-(N-methylamino)-carboxaldoxime-quinoxaline-1,4-dioxide] | 10 to 20 (≈ 42.7 to 85.4 µM) | 25 (≈ 107 µM) | + (indicates protection >80%) | 25 (≈ 107 µM) | + (indicates protection >80%) | 10 (≈ 42.7 µM) | 25 (≈ 107 µM) | 11 to 100 (≈ 47 to 427 µM) | – | – | – | + (indicates protection >80%) | – | – | – | –
7 | COC(=NO)c1c[n+]([O-])c2ccccc2[n+]1[O-] [Example 17 (methoxy), 2-(α-methoxy)-carboxaldoxime-quinoxaline-1,4-dioxide] | 2 to 10 (≈ 8.5 to 42.5 µM) | 10 (≈ 42.5 µM) | – | – | – | 10 (≈ 42.5 µM) | 10 (≈ 42.5 µM) | – | – | 11 to 100 (≈ 46.8 to 425 µM) | 11 to 100 (≈ 46.8 to 425 µM) | – | – | – | – | –
8 | Cc1ccc2c(c1)[n+]([O-])c(C(Cl)=NO)c[n+]2[O-] [Example 7, 2-(α-chloro)-carboxaldoxime-7-methyl-quinoxaline-1,4-dioxide] | – | 25 (≈ 98.6 µM) | – | – | – | 25 (≈ 98.6 µM) | 25 (≈ 98.6 µM) | – | 25 (≈ 98.6 µM) | 11 to 100 (≈ 43.4 to 394 µM) | 11 to 100 (≈ 43.4 to 394 µM) | – | 25 (≈ 98.6 µM) | 50 (≈ 197 µM) | – | –
9 | CN(C)NC(=NO)c1c[n+]([O-])c2ccccc2[n+]1[O-] [Example 21e, 2-(α-N-dimethyl-hydrazino)-carboxaldoxime-quinoxaline-1,4-dioxide] | 25 (≈ 95 µM) | 2 to 10 (≈ 7.6 to 38 µM) | – | 100 (≈ 380 µM) | – | 10 to 25 (≈ 38 to 95 µM) | 10 (≈ 38 µM) | – | – | – | – | – | – | – | – | –
10 | CC(=O)ON=C(Cl)c1c[n+]([O-])c2ccc(Cl)cc2[n+]1[O-] [Example 11, 2-[α-chloro-(0-acetyl)-carboxaldoxime]-7-chloro-quinoxaline-1,4-dioxide] | – | – | – | – | – | 11 to 100 (≈ 34.8 to 316 µM) | – | – | 2 (≈ 6.33 µM) | 11 to 100 (≈ 34.8 to 316 µM) | 11 to 100 (≈ 34.8 to 316 µM) | – | 1 (≈ 3.16 µM) | 2 (≈ 6.33 µM) | – | –
11 | CN1CCN(C(=NO)c2c[n+]([O-])c3ccccc3[n+]2[O-])CC1 [drawing 6] | 10 (≈ 33 µM) | 25 (≈ 82.4 µM) | – | – | – | 25 (≈ 82.4 µM) | 25 (≈ 82.4 µM) | 11 to 100 (≈ 36.3 to 330 µM) | – | – | – | – | – | – | 11 to 100 (≈ 36.3 to 330 µM) | –
12 | CC(=O)ON=C(Cl)c1c[n+]([O-])c2ccc(C)cc2[n+]1[O-] [Example 12, 2-[α-chloro-(0-acetyl)-7-methyl-quinoxaline]-1,4-dioxide] | – | – | – | – | – | – | – | – | 1 (≈ 3.38 µM) | 11 to 100 (≈ 37.2 to 338 µM) | 11 to 100 (≈ 37.2 to 338 µM) | – | 10 (≈ 33.8 µM) | 10 (≈ 33.8 µM) | – | –
13 | CCC(=O)ON=C(Cl)c1c[n+]([O-])c2ccccc2[n+]1[O-] [Y = H, R = CH2CH3] | – | 25 (≈ 84.6 µM) | – | 25 (≈ 84.6 µM) | – | 10 (≈ 33.8 µM) | 25 (≈ 84.6 µM) | – | – | 11 to 100 (≈ 37.2 to 338 µM) | 11 to 100 (≈ 37.2 to 338 µM) | – | – | – | – | –
14 | [O-][n+]1cc(C(=NO)NN2CCOCC2)[n+]([O-])c2ccccc21 [drawing 5] | – | – | – | – | – | 11 to 100 (≈ 36 to 328 µM) | – | – | 1 (≈ 3.28 µM) | 11 to 100 (≈ 36 to 328 µM) | – | – | – | – | – | –
15 | CN1CCN(NC(=NO)c2c[n+]([O-])c3ccccc3[n+]2[O-])CC1 | 2 (≈ 6.28 µM) | 25 (≈ 78.5 µM) | – | – | – | 50 (≈ 157 µM) | 50 (≈ 157 µM) | 11 to 100 (≈ 34.6 to 314 µM) | 25 (≈ 78.5 µM) | – | – | – | 25 (≈ 78.5 µM) | 10 to 25 (≈ 31.4 to 78.5 µM) | 11 to 100 (≈ 34.6 to 314 µM) | –
16 | O=C(ON=C(Cl)c1c[n+]([O-])c2ccccc2[n+]1[O-])c1ccc([N+](=O)[O-])cc1 [Example 14] | 50 (≈ 129 µM) | – | – | 11 to 100 (≈ 28.3 to 257 µM) | – | – | – | – | 11 to 100 (≈ 28.3 to 257 µM) | – | 11 to 100 (≈ 28.3 to 257 µM) | – | – | – | – | –
17 | [O-][n+]1cc(C(Cl)=NO)[n+]([O-])c2cc(Cl)ccc21 [Example 8, 2-(α-chloro)-carboxaldoxime-7-chloro-quinoxaline-1,4-dioxide] | 10 to 25 (≈ 36.5 to 91.2 µM) | 25 (≈ 91.2 µM) | – | – | – | 25 (≈ 91.2 µM) | 10 (≈ 36.5 µM) | – | 11 to 100 (≈ 40.1 to 365 µM) | 11 to 100 (≈ 40.1 to 365 µM) | 11 to 100 (≈ 40.1 to 365 µM) | – | – | – | – | –
18 | CN(C)C(=NO)c1c[n+]([O-])c2ccccc2[n+]1[O-] [Example 30, 2-(dimethylamino)-carboxaldoxime-quinoxaline-1,4-dioxide] | – | 10 (≈ 40.3 µM) | + (indicates protection >80%) | – | +/- (indicates protection 50-80%) | 10 (≈ 40.3 µM) | 50 (≈ 201 µM) | – | – | – | – | + (indicates protection >80%) | – | – | – | + (indicates protection >80%)
19 | CCC(=O)ON=C(Cl)c1c[n+]([O-])c2ccc(Cl)cc2[n+]1[O-] [Example 10, 2-(α-chloro-0-propionyl)-carboxaldoxime-7-chloro-quinoxaline-1,4-dioxide] | – | – | – | – | – | 11 to 100 (≈ 33.3 to 303 µM) | – | – | 1 (≈ 3.03 µM) | 11 to 100 (≈ 33.3 to 303 µM) | – | – | 1 (≈ 3.03 µM) | 1 (≈ 3.03 µM) | – | –
20 | Cc1cc2c(cc1C)[n+]([O-])c(C(Cl)=NO)c[n+]2[O-] [Example 9, 2-(α-chloro)-carboxaldoxime-6.7-dimethyl-quinoxaline-1,4-dioxide] | – | > 100 | – | > 100 | – | 11 to 100 (≈ 41.1 to 374 µM) | 11 to 100 (≈ 41.1 to 374 µM) | – | 11 to 100 (≈ 41.1 to 374 µM) | > 100 | > 100 | – | – | – | – | –
21 | CCOC(=NO)c1c[n+]([O-])c2ccccc2[n+]1[O-] [Example 17 (ethoxy), 2-(α-ethoxy)-carboxaldoxime-quinoxaline-1,4 dioxide] | – | 11 to 100 (≈ 44.1 to 401 µM) | – | 11 to 100 (≈ 44.1 to 401 µM) | – | 10 (≈ 40.1 µM) | – | – | – | 11 to 100 (≈ 44.1 to 401 µM) | 11 to 100 (≈ 44.1 to 401 µM) | – | – | – | – | –
22 | CCN(CC)C(=NO)c1c[n+]([O-])c2ccccc2[n+]1[O-] [Example 22, 2-(N-diethylamino)-carboxaldoxime-quinoxaline-1,4-dioxide] | – | 50 (≈ 181 µM) | – | 50 (≈ 181 µM) | – | 11 to 100 (≈ 39.8 to 362 µM) | 11 to 100 (≈ 39.8 to 362 µM) | – | – | – | – | – | – | – | 10 (≈ 36.2 µM) | –
